Data published in patent US20150164762A1, “USE OF ETHANOLAMINE PHOSPHATE” (priority 2012, published 2015).
Where two headings read alike, the source gives them in different places.

Key:
[1] = tested on: BEAS-2B; experiment: Proliferation test with GABA receptor agonists and GABA-A antagonist (WST-8); format: cell-based, human; conditions: 0.1% FBS, 72 hours
Protocol: […] […] Next, 10 μl per well of GABA (GABA-A and GABA-B receptor agonist) and homotaurine (GABA-A agonist) were added. A proliferation test (WST-8 assay) was performed after 72 hours.
[…] […] 10 μl per well of EP solution was added. A proliferation test (WST-8 assay) was performed after 72 hours.

[2] = tested on: BEAS-2B; experiment: Proliferative effects of EP and its metabolic derivatives (WST-8); format: cell-based, human
[3] = tested on: BEAS-2B; experiment: DNA microarray of H2O2-treated samples and correlational analysis with EP; format: cell-based, human; conditions: H2O2 125 μM, 6 hours
Protocol: The data of Example 13 were used as the EP gene expression data. Cell preparation and H2O2 administration were performed as in Test 13. Samples that had been treated for 6 hours with H2O2 at a final concentration of 125 μM were used as samples for gene expression analysis by DNA microarray.

[4] = tested on: BEAS-2B; experiment: Cell toxicity of H2O2 after EP pre-treatment (WST-8 assay); format: cell-based, human; conditions: Homo sapiens, BEAS-2B, read-out: EC50 (50% cell death concentration of H2O2)
Protocol: Cells of the normal airway epithelial cell line BEAS-2B were seeded at a density of 1×10^5/cm^2 on a 96-well plate, and after 24 hours the medium was replaced with 0.5% FBS RPMI 1640 containing EP at final concentrations of 0, 250 and 500 μM. 24 hours after medium replacement the medium was replaced with 0.5% FBS RPMI-1640, and serially diluted H2O2 was administered (n=4). 24 hours after H2O2 administration a cell toxicity test WST-8 assay (Cell Counting Kit-8, Dojindo) was performed. For the data analysis, the 50% cell death concentration EC50 was calculated with GraphPad Prism 5 statistical analysis software.

[5] = tested on: HHDPC cells; experiment: WST-8 proliferation test, primary normal human hair dermal papilla cells (HHDPC); conditions: high concentrations
Protocol: HHDPC cells (Cosmo Bio) were seeded to 1×10^4 cells/cm^2 on a 96-well plate. Complete MSCM medium (500, ScienCell) was used as the medium. After 24 hours, the cells were washed gently with 200 μl per well of PBS, the medium was replaced with 90 μl per well of 0% FBS DMEM with 1 vol % of complete MSCM medium added thereto, and the cells were cultured for 24 hours. After culture, 10 μl per well of EP solution was added, and a proliferation test (WST-8 assay) was performed 6 days after EP administration. The WST-8 assay was performed as in Example 1. The same test was performed using minoxidil, which has a clinical hair growth effect.

[6] = tested on: BEAS-2B; experiment: Permeability test, 4-kilodalton fluorescent dextran through BEAS-2B cell sheet (Papp); format: cell-based, human; conditions: Dex 1 μM, with or without EP 1 mM
Protocol: Cells of the established normal human airway epithelial cell line BEAS-2B were seeded to 1×10^5 cells/cm^2 on a cell culture insert (353104, BD Falcon) (FIG. 14). 10% FBS RPMI-1640 was used as the medium. The amount of medium was 200 μl on the insert side and 750 μl on the well side. Beginning the next day, substitution/medium replacement was performed once a day with 1% FBS RPMI-1640 prepared with the following 4 reagent conditions, and transepithelial electrical resistance (TER) was measured with MilliCell (Millipore). • Condition 1: Control • Condition 2: EP 1 mM • Condition 3: Dexamethasone 1 μM (dexamethasone (Dex): positive control substance known to enhance barrier function) • Condition 4: EP 1 mM and Dex 1 μM
7 days after cell seeding a permeability test was performed as follows.
A 4-kilodalton fluorescent dextran molecule (Sigma) was added to the cell culture insert to a concentration of 0.1 mg/ml, 20 μl of the medium on the well side was removed after 1 hour, and the amount of permeating fluorescent dextran was estimated from the fluorescent strength at each concentration. The permeation rate Papp of a substance from the insert side to the well side is normally determined by the following formula.
Papp=(volume of medium on well side/insert area×initial insert concentration)×(altered concentration on well side/elapsed time)

For `C[N+]1(C)CCc2cc3c(cc2[C@H]1[C@@H]1OC(=O)c2c1ccc1c2OCO1)OCO3.[Cl-]` [BM, (−)-Bicuculline Methochloride], the “inhibition of the proliferative action of EP” value [1] was “not inhibited”.

In the case of `C[N+](C)(C)CCOP(=O)(O)OP(=O)([O-])OC[C@H]1O[C@@H](n2ccc(N)nc2=O)[C@H](O)[C@@H]1O` [CDP-choline], the “animal cell proliferation without serum or growth factors” value [2] is reported as “not obtained”.

`NCCCC(=O)O` [GABA] was tested, and the proliferative action [1] was “neither the GABA-A and GABA-B receptor agonist GABA nor the EP structural analog and GABA-A receptor agonist homotaurine exhibited any statistically significant proliferative action”.

In the case of `OO` [H2O2, hydrogen peroxide, reference compound], the “expression of apoptosis-associated genes reduced by EP (30 probes)” value [3] is reported as “generally had their expression increased”, the “expression of cytokines and chemokines” value [3] is reported as “induced expression of cytokines and chemokines” and the EC50 ([4]; cells pre-treated with 250 uM EP) is reported as 190 µM. The EC50 ([4]; cells pre-treated with 500 uM EP) was 177 µM and the EC50 ([4]; control, no EP pre-treatment, 24 h) was 128 µM.

For `Nc1cc(N2CCCCC2)nc(N)[n+]1[O-]` [Minoxidil, minoxidil, reference compound], the cell toxicity [5] was “toxic above that range”.

In the case of `C[C@@H]1C[C@H]2[C@@H]3CCC4=CC(=O)C=C[C@]4(C)[C@@]3(F)[C@@H](O)C[C@]2(C)[C@@]1(O)C(=O)CO` [dexamethasone, reference compound], the “drop in Papp” value [6] is reported as “no rise in TER or drop in Papp”.

For `OCCNCCO` [diethanolamine], the “animal cell proliferation without serum or growth factors” value [2] was “not obtained”.

`NCCO` [ethanolamine] was tested, and the “animal cell proliferation without serum or growth factors” value [2] was “not obtained” and the proliferative action ([2]; 0.1% FBS, 72 hours) was “much weaker than that of EP”.

For `NCCCS(=O)(=O)O` [homotaurine], the proliferative action [1] was “neither the GABA-A and GABA-B receptor agonist GABA nor the EP structural analog and GABA-A receptor agonist homotaurine exhibited any statistically significant proliferative action”.

In the case of `C[N+](C)(C)CCOP(=O)(O)O` [phosphorylcholine], the “animal cell proliferation without serum or growth factors” value [2] is reported as “not obtained”.
